# Reference: US20140047572A1, “THROMBOPOIETIN MIMETICS FOR THE TREATMENT OF RADIATION OR CHEMICAL INDUCED BONE MARROW INJURY” (priority 2012, published 2014)
# What was measured:
# TPO receptors = conditions: depends on His 499 in the transmembrane portion; cited from earlier work
# [1] = test system: TM KI homozygote mutant mice; experiment: Blood cell recovery in irradiated human c-Mpl TM (exon 10) KI mice; format: in vivo, mouse; conditions: 6.5 Gy TBI, 25 mg/kg/day oral gavage from 24 h post IR, vs vehicle
# Method: TM KI homozygote mutant mice (11 weeks old, male and female) were treated with 6.5 Gy TBI and at 24 hr post IR fed with 25 mg ePag/kg/day or vehicle by oral gavage daily for 28 days or till sacrificed. Mice were sacrificed on the day specified. Whole blood was obtained by heart puncture and CBC was done by Heska HemaTrue Hematology analyzer. Whole blood was also stained by anti CD41 and anti CD61 antibodies. BM was extracted and stained with mCD41 and mCD42d for flow cytometry analysis of […] cells (markers for precursor and progenitors for thrombopoiesis).
# The ratio of platelets to RBCs was measured by flow cytometry after whole blood was stained with anti-CD41 and anti-CD61 antibodies. The count of platelets was calculated by multiplying the ratio with the count of RBCs obtained by Heska HemaTrue Hematology Analyzer. Week 0 is normal mice without IR and gavage.
# Mpl^hmMPL knock-in mice = experiment: Survival of Mpl^hmMPL knock-in mice after lethal total body irradiation; format: in vivo, mouse; conditions: 8 Gy TBI, eltrombopag 50 mg/kg gavage daily for 15 days from 24 h after TBI, monitored 30 days
# Method: FIG. 3 is a Kaplan-Meier survival curve showing survival of wildtype and Mpl^hmMPL knock-in mice after exposure to a non-therapeutic dose of radiation. Male Mpl^hmMPL knock-in mice received total body irradiation (TBI) of 8 Gy. Twenty-four hours after TBI, mice were gavaged daily with eltrombopag (50 mg/kg) for 15 days. Survival of mice was monitored twice daily for 30 days. Experiments were carried out with 8 homozygous Mpl^hmMPL knock-in mice, 10 heterozygous Mpl^hmMPL knock-in mice, and 10 wild type mice.
# All mice received 8 Gy total body irradiation and were treated with eltrombopag 24 hours after irradiation. […] It is believed that eltrombopag facilitates bone marrow recovery after radiation injury to the hematopoietic system.
# [2] = test system: Human bone marrow mononuclear cells; experiment: Megakaryocyte and CD41+CD34- cell differentiation in ex vivo human bone marrow culture in 3D bioreactor; format: cell-based; conditions: eltrombopag 8 μg/mL + IL11 vs TPO + IL11; non-irradiated control and irradiated cultures; 14 days
# Method: FIGS. 12A-D illustrate the effects of IL-11 only (middle/red bars) versus TPO+IL11 (left/blue bars) versus eltrombopag (8 μg/mL)+IL11 (right/green bars) on promoting megakaryocyte or CD41+CD34− cell differentiation in control and irradiated ex vivo human 3D bone marrow mononuclear cells. Cells were treated with TPO and IL11 (5 ng/mL each) for 6-7 days to induce megakaryocyte differentiation. Culture media was replaced with cultures containing IL-11 only, TPO+IL11, or eltrombopag+IL11 for the groups of control cultures (FIGS. 12A, 12C) and the group of irradiated cultures (FIGS. 12B, 12D). […]
# Human bone marrow mononuclear cells were inoculated into the 6-well bioreactor as described above (3.5×10^6 cells in 0.6 mL). […] Cultures were screened weekly for cell viability (Trypan blue exclusion test) and for megakaryocytes production expressed as number of megakaryocytes per 1000 bone marrow cells on Wright stained cytospin slides.
# Flow cytometry analysis of CD41+CD34− cells (marker for precursor/progenitor of thrombopoiesis) was also performed for megakaryocytes and progenitors as an additional experimental end-point. […] Cells were analyzed on FACS—Calibur Flow Cytometer (Becton-Dickinson, Rockville, Md.). CD41+CD34− cell population was gated as a subpopulation of all living cells analyzed. […]
# [3] = test system: human c-mpl TM (exon 10) KI mice; experiment: Survival of irradiated human c-mpl TM (exon 10) KI mice; format: in vivo, mouse; conditions: 7.75 Gy TBI; for survival after TBI: male mice, 12.5, 25 or 50 mg/kg daily gavage 15 days from 24 h after irradiation, vs vehicle
# Method: (§1) Male Mpl^hExon10KI (human c-mpl TM knock-in mice) received 7.75 Gy TBI. Twenty-four hours after irradiation, mice were gavaged with either vehicle (0 mg/kg of eltrombopag) or one of the three doses of eltrombopag (12.5 mg/kg, 25 m g/kg, vs. 50 mg/kg daily for 15 days (n=8-10) for each experimental group.
# as §1, with “A pilot radiation study of was performed using human” for “Male Mpl^hExon10KI (human”, “KI mice before completion of backcrossing to >95% C57B1. Male human c-mpl TM (exon 10) KI mice” for “knock-in mice)”
# Mpl^hExon10 KI mice = experiment: Eltrombopag treatment of non-irradiated Mpl^hExon10 KI mice: platelet and bone marrow cell populations; format: in vivo, mouse; conditions: 25 mg/kg/day gavage 15 days, vs vehicle
# Method: Mpl^hExon10 KI mice (9 to 13 weeks old, male and female) were fed with 25 mg eltrombopag (ePag)/kg/day or vehicle by gavage for 15 days. Eltrombopag is a non-peptide mimetic of the TPO receptor. Mice were sacrificed on the 16th day for cell analysis.
# To examine platelet levels, whole blood was obtained by heart puncture and CBC was done by Heska HemaTrue Hematology analyzer. Whole blood was also stained by anti CD41 and anti CD61 antibodies. The ratio of platelets to RBCs was measured by flow cytometry after whole blood was stained with anti-CD41 and anti-CD61 antibodies. The count of platelets was calculated by multiplying the ratio with the count of RBCs obtained by Heska HemaTrue Hematology Analyzer. The data is presented as mean±standard error of the mean.
# To examine bone marrow cell populations, mice were sacrificed on day 16 and bone marrow cells were flushed out of the femur and tibia. RBCs were lysed by ACK buffer. The bone marrow mononuclear cells were stained with anti-CD41-PE and anti-CD42-APC. DAPI was added before flow cytometric analysis to gate away dead cells. The number of mice in each genotype is 5-7. All results are shown as the mean±standard error of the mean.
# In a separate experiment, bone marrow mononuclear cells were stained with anti-lineages-PE (Gr-1, Mac-1, B220, Ter119, CD4 and CD8), anti-Sca-1 FITC, and anti-c-kit-APC. DAPI-pacific blue was added before flow cytometric analysis to eliminate dead cells. To analyze KSL (linage^−, c-kit^+, sca^+) population, live cells (DAPI-) are first gated, followed by gating the linage^− population and selecting c-kit^+/sca-1^+ population within the linage^− population.
structure (smiles),measurement,setting,value
"CC1=NN(c2ccc(C)c(C)c2)C(=O)/C1=N\Nc1cccc(-c2cccc(C(=O)O)c2)c1O [eltrombopag, (Z)-3′-(2-(1-(3,4-dimethylphenyl)-3-methyl-5-oxo-1H-pyrazol-4(5H)-ylidene)hydrazinyl)-2′-hydroxybiphenyl-3-carboxylic acid]",species-specificity of TPO receptor binding,TPO receptors,binds to the TPO receptors of only humans and chimpanzees
same,red blood cell counts,[1]; 2 weeks post IR,an improvement
same,platelet counts,[1]; 4 and 6 weeks post IR,significant improvement
same,count of bone marrow precursor/progenitor cells for thrombopoiesis,[1]; 4 weeks post IR,significant improvement
same,white blood cell counts,[1]; 6 weeks post IR,significant improvement
same,"survival after lethal total body irradiation, heterozygous Mpl^hmMPL knock-in mice",Mpl^hmMPL knock-in mice; heterozygous vs wild type,survived longer than the wild type
same,"survival after lethal total body irradiation, homozygous Mpl^hmMPL knock-in mice",Mpl^hmMPL knock-in mice; homozygous vs heterozygous,survived longer than the heterozygous transgenic mice
same,CD41+CD34- cells (precursors/progenitors for thrombopoiesis),[2],performed as well as TPO
same,megakaryocytes (number per 1000 bone marrow cells),[2],performed as well as TPO in promoting megakaryocytes
same,"survival after TBI, dose dependence",[3]; 25 and 50 mg/kg vs 12.5 mg/kg daily for 15 days,higher doses (25 mg/kg and 50 mg/kg) yielded better survival
same,survival after TBI,[3],improves survival
same,survival after TBI,[3]; listed as Eltrombopag,improved the survival of mice
same,bone marrow Lin-KSL (stem) cells,Mpl^hExon10 KI mice; Mpl^hExon10 KI mice,significantly increased
same,bone marrow CD41+CD42+ cells,"Mpl^hExon10 KI mice; homozygous Mpl^hExon10 KI mice, day 16",significantly increased
same,platelet counts in the peripheral blood,"Mpl^hExon10 KI mice; homozygous Mpl^hExon10 KI mice, day 16, 25 mg/kg/day",significantly increased the platelet counts
